Reference: the NIST ThermoML archive (doi:10.1016/j.jct.2015.08.014)
Numbers after ± are expanded uncertainties.

Assay: xn = mol fraction of the nth substance listed
Conditions: 303.15 K, 100 kPa, Liquid, Alternating current cell with electrodes

CCCC[N+]1(C)CCCC1.N#CN=C=[N-] [1-butyl-1-methylpyrrolidinium dicyanamide] + O=C1CCCO1
Conditions | electrical conductivity [S/m]
Frequency=0.00347222 MHz, x1 = 0.4985 | 2.33 ± 0.024
Frequency=0.00347222 MHz, x1 = 0.6954 | 1.912 ± 0.019
Frequency=0.00347222 MHz, x1 = 0.9013 | 1.607 ± 0.016
Frequency=0.00347222 MHz, x1 = 1 | 1.527 ± 0.015
Frequency=0.004 MHz, x1 = 0.0463 | 1.58 ± 0.028
Frequency=0.004 MHz, x1 = 0.0987 | 2.38 ± 0.03
Frequency=0.004 MHz, x1 = 0.1449 | 2.71 ± 0.029
Frequency=0.004 MHz, x1 = 0.1859 | 2.9 ± 0.029
Frequency=0.004 MHz, x1 = 0.2493 | 2.85 ± 0.029
Frequency=0.004 MHz, x1 = 0.3029 | 2.79 ± 0.028
Frequency=0.004 MHz, x1 = 0.3845 | 2.618 ± 0.026
Frequency=0.004 MHz, x1 = 0.4985 | 2.33 ± 0.024
Frequency=0.004 MHz, x1 = 0.6954 | 1.912 ± 0.019
Frequency=0.004 MHz, x1 = 0.9013 | 1.607 ± 0.016
Frequency=0.004 MHz, x1 = 1 | 1.527 ± 0.015
Frequency=0.00446429 MHz, x1 = 0.0463 | 1.58 ± 0.028
Frequency=0.00446429 MHz, x1 = 0.0987 | 2.38 ± 0.03
Frequency=0.00446429 MHz, x1 = 0.1449 | 2.71 ± 0.029
Frequency=0.00446429 MHz, x1 = 0.1859 | 2.9 ± 0.029
Frequency=0.00446429 MHz, x1 = 0.2493 | 2.85 ± 0.029
Frequency=0.00446429 MHz, x1 = 0.3029 | 2.79 ± 0.028
Frequency=0.00446429 MHz, x1 = 0.3845 | 2.618 ± 0.026
Frequency=0.00446429 MHz, x1 = 0.4985 | 2.33 ± 0.024
Frequency=0.00446429 MHz, x1 = 0.6954 | 1.912 ± 0.019
Frequency=0.00446429 MHz, x1 = 0.9013 | 1.608 ± 0.016
Frequency=0.00446429 MHz, x1 = 1 | 1.527 ± 0.015
Frequency=0.005 MHz, x1 = 0.0463 | 1.58 ± 0.028
Frequency=0.005 MHz, x1 = 0.0987 | 2.38 ± 0.03
Frequency=0.005 MHz, x1 = 0.1449 | 2.71 ± 0.029
Frequency=0.005 MHz, x1 = 0.1859 | 2.9 ± 0.029
Frequency=0.005 MHz, x1 = 0.2493 | 2.85 ± 0.029
Frequency=0.005 MHz, x1 = 0.3029 | 2.79 ± 0.028
Frequency=0.005 MHz, x1 = 0.3845 | 2.618 ± 0.026
Frequency=0.005 MHz, x1 = 0.4985 | 2.33 ± 0.024
Frequency=0.005 MHz, x1 = 0.6954 | 1.912 ± 0.019
Frequency=0.005 MHz, x1 = 0.9013 | 1.608 ± 0.016
Frequency=0.005 MHz, x1 = 1 | 1.527 ± 0.015
Frequency=0.005454 MHz, x1 = 0.0463 | 1.58 ± 0.028
Frequency=0.005454 MHz, x1 = 0.0987 | 2.38 ± 0.03
Frequency=0.005454 MHz, x1 = 0.1449 | 2.71 ± 0.029
Frequency=0.005454 MHz, x1 = 0.1859 | 2.9 ± 0.029
Frequency=0.005454 MHz, x1 = 0.2493 | 2.86 ± 0.029
Frequency=0.005454 MHz, x1 = 0.3029 | 2.79 ± 0.028
Frequency=0.005454 MHz, x1 = 0.3845 | 2.619 ± 0.026
Frequency=0.005454 MHz, x1 = 0.4985 | 2.33 ± 0.024
Frequency=0.005454 MHz, x1 = 0.6954 | 1.912 ± 0.019
Frequency=0.005454 MHz, x1 = 0.9013 | 1.608 ± 0.016
Frequency=0.005454 MHz, x1 = 1 | 1.527 ± 0.015
Frequency=0.006 MHz, x1 = 0.0463 | 1.58 ± 0.028
Frequency=0.006 MHz, x1 = 0.0987 | 2.38 ± 0.03
Frequency=0.006 MHz, x1 = 0.1449 | 2.71 ± 0.029
Frequency=0.006 MHz, x1 = 0.1859 | 2.9 ± 0.029
Frequency=0.006 MHz, x1 = 0.2493 | 2.86 ± 0.029
Frequency=0.006 MHz, x1 = 0.3029 | 2.79 ± 0.028
Frequency=0.006 MHz, x1 = 0.3845 | 2.619 ± 0.026
Frequency=0.006 MHz, x1 = 0.4985 | 2.33 ± 0.024
Frequency=0.006 MHz, x1 = 0.6954 | 1.912 ± 0.019
Frequency=0.006 MHz, x1 = 0.9013 | 1.608 ± 0.016
Frequency=0.006 MHz, x1 = 1 | 1.527 ± 0.015
Frequency=0.00652174 MHz, x1 = 0.0463 | 1.58 ± 0.028
Frequency=0.00652174 MHz, x1 = 0.0987 | 2.38 ± 0.03
Frequency=0.00652174 MHz, x1 = 0.1449 | 2.71 ± 0.029
Frequency=0.00652174 MHz, x1 = 0.1859 | 2.9 ± 0.029
Frequency=0.00652174 MHz, x1 = 0.2493 | 2.86 ± 0.029
Frequency=0.00652174 MHz, x1 = 0.3029 | 2.79 ± 0.028
Frequency=0.00652174 MHz, x1 = 0.3845 | 2.619 ± 0.026
Frequency=0.00652174 MHz, x1 = 0.4985 | 2.33 ± 0.024
Frequency=0.00652174 MHz, x1 = 0.6954 | 1.913 ± 0.019
Frequency=0.00652174 MHz, x1 = 0.9013 | 1.608 ± 0.016
Frequency=0.00652174 MHz, x1 = 1 | 1.527 ± 0.015
Frequency=0.00694444 MHz, x1 = 0.0463 | 1.58 ± 0.028
Frequency=0.00694444 MHz, x1 = 0.0987 | 2.38 ± 0.03
Frequency=0.00694444 MHz, x1 = 0.1449 | 2.71 ± 0.029
Frequency=0.00694444 MHz, x1 = 0.1859 | 2.901 ± 0.029
Frequency=0.00694444 MHz, x1 = 0.2493 | 2.86 ± 0.029
Frequency=0.00694444 MHz, x1 = 0.3029 | 2.79 ± 0.028
Frequency=0.00694444 MHz, x1 = 0.3845 | 2.619 ± 0.026
Frequency=0.00694444 MHz, x1 = 0.4985 | 2.33 ± 0.024
Frequency=0.00694444 MHz, x1 = 0.6954 | 1.913 ± 0.019
Frequency=0.00694444 MHz, x1 = 0.9013 | 1.608 ± 0.016
Frequency=0.00694444 MHz, x1 = 1 | 1.527 ± 0.015
Frequency=0.0075 MHz, x1 = 0.0463 | 1.58 ± 0.028
Frequency=0.0075 MHz, x1 = 0.0987 | 2.38 ± 0.03
Frequency=0.0075 MHz, x1 = 0.1449 | 2.71 ± 0.029
Frequency=0.0075 MHz, x1 = 0.1859 | 2.901 ± 0.029
Frequency=0.0075 MHz, x1 = 0.2493 | 2.86 ± 0.029
Frequency=0.0075 MHz, x1 = 0.3029 | 2.79 ± 0.028
Frequency=0.0075 MHz, x1 = 0.3845 | 2.619 ± 0.026
Frequency=0.0075 MHz, x1 = 0.4985 | 2.33 ± 0.024
Frequency=0.0075 MHz, x1 = 0.6954 | 1.913 ± 0.019
Frequency=0.0075 MHz, x1 = 0.9013 | 1.608 ± 0.016
Frequency=0.0075 MHz, x1 = 1 | 1.527 ± 0.015
Frequency=0.008 MHz, x1 = 0.0463 | 1.58 ± 0.028
Frequency=0.008 MHz, x1 = 0.0987 | 2.38 ± 0.03
Frequency=0.008 MHz, x1 = 0.1449 | 2.71 ± 0.029
Frequency=0.008 MHz, x1 = 0.1859 | 2.902 ± 0.029
Frequency=0.008 MHz, x1 = 0.2493 | 2.86 ± 0.029
Frequency=0.008 MHz, x1 = 0.3029 | 2.79 ± 0.028
Frequency=0.008 MHz, x1 = 0.3845 | 2.62 ± 0.026
Frequency=0.008 MHz, x1 = 0.4985 | 2.33 ± 0.024
Frequency=0.008 MHz, x1 = 0.6954 | 1.913 ± 0.019
Frequency=0.008 MHz, x1 = 0.9013 | 1.608 ± 0.016
Frequency=0.008 MHz, x1 = 1 | 1.527 ± 0.015
Frequency=0.00857143 MHz, x1 = 0.0463 | 1.58 ± 0.028
Frequency=0.00857143 MHz, x1 = 0.0987 | 2.38 ± 0.03
Frequency=0.00857143 MHz, x1 = 0.1449 | 2.71 ± 0.029
Frequency=0.00857143 MHz, x1 = 0.1859 | 2.902 ± 0.029
